Results: ChEMBL document CHEMBL5724914, “Linking interpersonal differences in gut microbiota composition and drug biotransformation activity” (2024)

What was measured:
[1] = human gut metagenome, 24 h, 2 µM
[2] = human gut metagenome, 24 h, 2 µM; remark: listed apart in the source
[3] = (§1) The drug is tested on WLS-077 corresponding to human gut metagenome with ENA study accession number: PRJEB37062 and ENA sample accession number: ERS12561750 for biotransformation under anaerobic condition. The drug concentrations were measured over 9 timepoints collected between 0 and 24 hours of incubation by liquid-chromatography-coupled mass spectrometry (LC–MS); settings: 2 µM
[4] = as §1, with “Z-012” for “WLS-077”, “to” for “to human gut”, “ERS12561812” for “ERS12561750”; settings: 2 µM
[5] = human gut metagenome, 24 h, 2 µM; remark: listed apart in the source
[6] = human gut metagenome, 24 h, 2 µM; remark: listed apart in the source
[7] = human gut metagenome, 24 h, 2 µM; remark: listed apart in the source
[8] = as §1, with “WLS-098” for “WLS-077”, “ERS12561754” for “ERS12561750”; settings: 2 µM
[9] = as §1, with “Z-018” for “WLS-077”, “pig” for “human”, “ERS12561817” for “ERS12561750”; settings: 2 µM
[10] = as §1, with “Z-017” for “WLS-077”, “mouse” for “human”, “ERS12561816” for “ERS12561750”; settings: 2 µM
[11] = human gut metagenome, 24 h, 2 µM; remark: listed apart in the source
[12] = as §1, with “Z-008” for “WLS-077”, “to” for “to human gut”, “ERS12561808” for “ERS12561750”; settings: 2 µM
[13] = as §1, with “Z-006” for “WLS-077”, “mouse” for “human”, “ERS12561806” for “ERS12561750”; settings: 2 µM
[14] = human gut metagenome, 24 h, 2 µM; remark: listed apart in the source
[15] = human gut metagenome, 24 h, 2 µM; remark: listed apart in the source
[16] = as §1, with “WLS-007” for “WLS-077”, “ERS12561742” for “ERS12561750”; settings: 2 µM
[17] = human gut metagenome, 24 h, 2 µM; remark: listed apart in the source
[18] = as §1, with “Z-013” for “WLS-077”, “rabbit” for “human”, “ERS12561813” for “ERS12561750”; settings: 2 µM
[19] = as §1, with “Z-021” for “WLS-077”, “to” for “to human gut”, “ERS12561820” for “ERS12561750”; settings: 2 µM
[20] = as §1, with “Z-025” for “WLS-077”, “rabbit” for “human”, “ERS12561824” for “ERS12561750”; settings: 2 µM
Further: call rule not given here.

Row | SMILES | Bacterial Biotransformation [1] | Bacterial Biotransformation [2] | Bacterial Biotransformation [3] | Bacterial Biotransformation [4] | Bacterial Biotransformation [5] | Bacterial Biotransformation [6] | Bacterial Biotransformation [7] | Bacterial Biotransformation [8] | Bacterial Biotransformation [9] | Bacterial Biotransformation [10] | Bacterial Biotransformation [11] | Bacterial Biotransformation [12] | Bacterial Biotransformation [13] | Bacterial Biotransformation [14] | Bacterial Biotransformation [15] | Bacterial Biotransformation [16] | Bacterial Biotransformation [17] | Bacterial Biotransformation [18] | Bacterial Biotransformation [19] | Bacterial Biotransformation [20]
1 | CCOC(=O)[C@H](CCc1ccccc1)N[C@@H](C)C(=O)N1[C@H](C(=O)O)C[C@H]2CCCC[C@@H]21 [TRANDOLAPRIL] | Compound metabolized | Compound metabolized | Compound metabolized | Compound NOT metabolized | Compound metabolized | Compound NOT metabolized | Compound metabolized | Compound metabolized | Compound metabolized | Compound NOT metabolized | Compound metabolized | Compound NOT metabolized | Compound NOT metabolized | Compound metabolized | Compound metabolized | Compound metabolized | Compound metabolized | Compound NOT metabolized | Compound NOT metabolized | Compound NOT metabolized
2 | Cc1cc2c(cc1S(N)(=O)=O)S(=O)(=O)CCC2 | Compound NOT metabolized | Compound NOT metabolized | Compound NOT metabolized | Compound NOT metabolized | Compound NOT metabolized | Compound NOT metabolized | Compound NOT metabolized | Compound NOT metabolized | Compound NOT metabolized | Compound NOT metabolized | Compound NOT metabolized | Compound NOT metabolized | Compound NOT metabolized | Compound NOT metabolized | Compound NOT metabolized | Compound NOT metabolized | Compound NOT metabolized | Compound NOT metabolized | Compound NOT metabolized | Compound NOT metabolized
3 | O=C(Nc1ccccc1)OCC(CN1CCCCC1)OC(=O)Nc1ccccc1 (stereo not given) [DIPERODON] | Compound NOT metabolized | Compound NOT metabolized | Compound NOT metabolized | Compound NOT metabolized | Compound NOT metabolized | Compound NOT metabolized | Compound NOT metabolized | Compound metabolized | Compound NOT metabolized | Compound NOT metabolized | Compound metabolized | Compound NOT metabolized | Compound NOT metabolized | Compound NOT metabolized | Compound NOT metabolized | Compound NOT metabolized | Compound metabolized | Compound NOT metabolized | Compound NOT metabolized | Compound metabolized
4 | CN1CCC(=C2c3ccccc3CCc3cccnc32)CC1.O=C(O)/C=C\C(=O)O.O=C(O)/C=C\C(=O)O [AZATADINE MALEATE] | Compound NOT metabolized | Compound NOT metabolized | Compound NOT metabolized | Compound NOT metabolized | Compound NOT metabolized | Compound NOT metabolized | Compound NOT metabolized | Compound NOT metabolized | Compound NOT metabolized | Compound NOT metabolized | Compound NOT metabolized | Compound NOT metabolized | Compound NOT metabolized | Compound NOT metabolized | Compound NOT metabolized | Compound NOT metabolized | Compound metabolized | Compound NOT metabolized | Compound NOT metabolized | Compound NOT metabolized
